Patent US20100266504A1, “CONDENSED PYRIDINE DERIVATIVE AND USE THEREOF” (priority 2007, published 2010)
Structures can show the parent of a compound that is named as a salt. Where two headings read alike, the source gives them in different places.

Columns and labels:
[1] = molecular target: serotonin 5-HT2C receptor (isoform type VSV, stably expressing CHO cell) (Homo sapiens, UniProt P28335, I156V/I160V/N158S); assay: cell-based; conditions: for Emax: CHO, read-out: ratio relative to maximum response by 5-HT (1 μM); for ratio relative to maximum response by 5-HT (1 μM): hydrochloride
serotonin 5-HT2C receptor (isoform type VSV, stably expressing CHO cell), sequence (P28335 33-458 I156V/N158S/I160V limits assumed): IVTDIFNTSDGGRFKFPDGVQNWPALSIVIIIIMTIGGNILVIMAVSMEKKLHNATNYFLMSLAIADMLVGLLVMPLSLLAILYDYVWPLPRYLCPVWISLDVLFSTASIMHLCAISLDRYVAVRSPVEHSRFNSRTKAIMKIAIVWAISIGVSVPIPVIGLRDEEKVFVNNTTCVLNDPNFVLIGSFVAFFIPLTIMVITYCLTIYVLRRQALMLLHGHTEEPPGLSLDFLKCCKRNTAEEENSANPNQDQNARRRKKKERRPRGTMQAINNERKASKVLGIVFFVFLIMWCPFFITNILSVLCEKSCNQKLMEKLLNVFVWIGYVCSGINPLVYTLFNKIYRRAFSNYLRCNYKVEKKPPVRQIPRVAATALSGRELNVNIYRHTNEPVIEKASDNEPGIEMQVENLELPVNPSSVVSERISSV

[2] = test system: spinal cord transected female rats whose hypogastric nerve and pudendal nerves were bilaterally cut; assay: urethral closure response induced by increased intravesical pressure (Experimental Example 5); conditions: for urethral closure response (cmH2O) after drug administration: i.v., 10 min after administration; for urethral closure response (cmH2O) after drug administration / urethral closure response (cmH2O) before drug administration: mean ± SEM, n=5; for urethral closure response (cmH2O) before drug administration: i.v. group; for effect on urethral closure response induced by increased intravesical pressure (in words): intravenous administration
Description: Female SD rats (body weight 200-310 g) were anesthetized with urethane (Wako Pure Chemical Industries, Ltd.), and the spinal cord was transected at T8-9 level to eliminate the micturition reflex. During the operation, halothane (Takeda Pharmaceutical Company Limited) anesthesia was added when necessary. After abdominal section, bladder neck was ligated with a suture thread, and then the hypogastric nerve and pudendal nerve were bilaterally transected. A catheter (PE-90, Clay Adams) was placed in the bladder, and the other end of the bladder catheter was connected to a pressure transducer and a water reservoir (60 ml syringe) of saline via a three-way cock. A microtip transducer catheter (SPR-524, Millar Instruments Inc.) was inserted toward the bladder from the urethral orifice, and adjusted using a scale on the catheter surface so that the transducer part is positioned in the urethra at 10.0-15.0 mm from the urethral orifice.
The changes in the topical pressure within the urinary tract (hereinafter conveniently indicated as urethral pressure) as measured by the microtip transducer was transmitted to a computer via an amplifier (blood pressure amplification unit AP-641G; NIHON KOHDEN) and a data analyzer (MP-100; biopack; sampled at 500 Hz), and recorded on a hard disc. […] The reaction of the urinary tract induced by an increased intravesical pressure was measured 3 times, and the average of the last 2 measures was taken as the value before drug administration. The evaluation item was reflex urethral closure response, and the recorded values were subjected to smoothing process at 500 points to calculate an average urethral pressure per 1 sec, after which the value immediately before increase in the intravesical pressure was subtracted from the maximum value on increase in the intravesical pressure and taken as the urethral closure response. […] The drugs were all dissolved in N,N-dimethylformamide/polyethylene glycol 400 (1:1) and administered intravenously at a volume of 0.5 ml/kg.

[3] = test system: spinal cord-transected female rats under urethane anesthesia; assay: leak point pressure by high speed infusion method, serotonin 5-HT2C receptor agonists (Experimental Example 3); conditions: for change of leak point pressure (cmH2O): i.v., mean ± SEM; for effect on leak point pressure (in words): intravenous administration
Description: SD female rats (body weight 180-350 g) were anesthetized with urethane (Wako Pure Chemical Industries, Ltd.), and the spinal cord was cut at T8-9 level to eliminate the micturition reflex. During the operation, halothane (Takeda Pharmaceutical Company Limited) anesthesia was added as necessary. The rats were fixed at a dorsal position, and two catheters (PE-100; Clay Adams) were indwelled in the bladder. One of the catheters was filled with saline stained with Evans Blue dye (Merck), and connected to a 50 ml syringe (TERUMO CORPORATION) fixed on an infusion pump (KD Scientific) via a three-way cock. The other catheter was connected to a pressure transducer (DX-100; NIHON KOHDEN CORPORATION), and signals of the transducer were transmitted to computer via an amplifier (blood pressure amplification unit AP-641G; NIHON KOHDEN CORPORATION) and a data analyzer (BIOPAC; MP100), and recorded on a hard disk. The data was analyzed on the computer using a software (BIOPAC; AcqKnowledge). Saline was injected into the bladder using the infusion pump at a rate of 360 ml/hr, infusion was stopped on the moment fluid leakage from the urethral meatus was observed, and the solution in the bladder was discharged by opening the three-way cock. The maximum intravesical pressure during infusion was taken as a leak point pressure, which was measured repeatedly until the value was stabilized, and the average value of the last three measures was taken as the data. […] All the drugs were dissolved in DMA/PEG400 (1:1) and intravenously administered at 0.5 ml/kg.

[4] = test system: spinal cord-transected female rats under urethane anesthesia; conditions: before vs after administration
Description: SD female rats (body weight 180-350 g) were anesthetized with urethane (Wako Pure Chemical Industries, Ltd.), and the spinal cord was cut at T8-9 level to eliminate the micturition reflex. During the operation, halothane (Takeda Pharmaceutical Company Limited) anesthesia was added as necessary. The rats were fixed at a dorsal position, and two catheters (PE-100; Clay Adams) were indwelled in the bladder. One of the catheters was filled with saline stained with Evans Blue dye (Merck), and connected to a 50 ml syringe (TERUMO CORPORATION) fixed on an infusion pump (KD Scientific) via a three-way cock. The other catheter was connected to a pressure transducer (DX-100; NIHON KOHDEN CORPORATION), and signals of the transducer were transmitted to computer via an amplifier (blood pressure amplification unit AP-641G; NIHON KOHDEN CORPORATION) and a data analyzer (BIOPAC; MP100), and recorded on a hard disk. The data was analyzed on the computer using a software (BIOPAC; AcqKnowledge). Saline was injected into the bladder using the infusion pump at a rate of 360 ml/hr, infusion was stopped on the moment fluid leakage from the urethral meatus was observed, and the solution in the bladder was discharged by opening the three-way cock. The maximum intravesical pressure during infusion was taken as a leak point pressure.

## CC1CNCc2ccc(N3CCOCC3)nc21 (single isomer, unassigned) [Example 73, (8R*)-8-Methyl-2-morpholin-4-yl-5,6,7,8-tetrahydro-1,6-naphthyridine hydrochloride]
[1]
  Emax: 101%

## CC1CNCc2ccc(N3CCOCC3)nc21 (single isomer, unassigned) [Example 74, (8S*)-8-Methyl-2-morpholin-4-yl-5,6,7,8-tetrahydro-1,6-naphthyridine hydrochloride]
[1]
  ratio relative to maximum response by 5-HT (1 μM): 103

## CC1CNCc2ccc(N(C)C(C)C)nc21 (single isomer, unassigned) [Example 79, (8R*)-N-Isopropyl-N,8-dimethyl-5,6,7,8-tetrahydro-1,6-naphthyridin-2-amine hydrochloride]
[1]
  Emax: 106%

## CC1CNCc2ccc(N(C)C(C)C)nc21 (single isomer, unassigned) [Example 80, (8S*)-N-Isopropyl-N,8-dimethyl-5,6,7,8-tetrahydro-1,6-naphthyridin-2-amine hydrochloride]
[1]
  ratio relative to maximum response by 5-HT (1 μM): 102

## CC1CNCc2ccc(N3CCOC[C@H]3C)nc21 (stereo in doubt) [Example 75, (8R*)-8-Methyl-2-[(3R)-3-methylmorpholin-4-yl]-5,6,7,8-tetrahydro-1,6-naphthyridine hydrochloride]
[1]
  Emax: 103%

## CC1CNCc2ccc(N3CCOC[C@H]3C)nc21 (stereo in doubt) [Example 76, (8S*)-8-Methyl-2-[(3R)-3-methylmorpholin-4-yl]-5,6,7,8-tetrahydro-1,6-naphthyridine hydrochloride]
[1]
  ratio relative to maximum response by 5-HT (1 μM): 105

## C[C@H]1CNCCc2ccc(Cl)cc21 [APD-356]
[2]; 1 mg/kg
  urethral closure response (cmH2O) after drug administration: 8.6 ± 2.7 cmH2O
[2]; baseline of the 1 mg/kg
  urethral closure response (cmH2O) before drug administration: 5.3 ± 1.7 cmH2O
[2]
  effect on urethral closure response induced by increased intravesical pressure (in words): enhanced the urethral closure response
[3]; 0.1 mg/kg
  change of leak point pressure (cmH2O): 5.2 ± 2.6 cmH2O
[3]; 1 mg/kg
  change of leak point pressure (cmH2O): 19.2 ± 3.1 cmH2O
[3]; 3 mg/kg
  change of leak point pressure (cmH2O): 28.9 ± 3.3 cmH2O
[3]
  effect on leak point pressure (in words): increased the leak point pressure in a dose-dependent manner

## CC1CCNCc2ccc(N3CCOCC3)nc21 (centres unmarked) [Example 2, 9-Methyl-2-morpholin-4-yl-6,7,8,9-tetrahydro-5H-pyrido[3,2-c]azepine hydrochloride]
[1]
  Emax: 92.8%

## CC1CNCc2ccc(-c3ccc(F)cc3)nc21 (centres unmarked) [Example 4, 2-(4-Fluorophenyl)-8-methyl-5,6,7,8-tetrahydro-1,6-naphthyridine hydrochloride]
[1]
  Emax: 101%

## CC1CNCc2ccc(N3CCOCC3)nc21 (centres unmarked) [Example 5, 8-Methyl-2-morpholin-4-yl-5,6,7,8-tetrahydro-1,6-naphthyridine dihydrochloride]
[1]
  Emax: 101%

## c1cc2c(nc1N1CCOCC1)CCNC2 [Example 6, 2-Morpholin-4-yl-5,6,7,8-tetrahydro-1,6-naphthyridine]
[1]
  Emax: 100%

## C[C@@H]1COCCN1c1ccc2c(n1)CCNC2 [Example 7, 2-[(3R)-3-Methylmorpholin-4-yl]-5,6,7,8-tetrahydro-1,6-naphthyridine hydrochloride]
[1]
  Emax: 95.6%

## C[C@H]1COCCN1c1ccc2c(n1)CCNC2 [Example 8, 2-[(3S)-3-Methylmorpholin-4-yl]-5,6,7,8-tetrahydro-1,6-naphthyridine hydrochloride]
[1]
  Emax: 90.8%

## CCN(C)c1ccc2c(n1)CCNC2 [Example 15, N-Ethyl-N-methyl-5,6,7,8-tetrahydro-1,6-naphthyridin-2-amine hydrochloride]
[1]
  Emax: 102%

## CC(C)N(C)c1ccc2c(n1)CCNC2 [Example 17, N-Isopropyl-N-methyl-5,6,7,8-tetrahydro-1,6-naphthyridin-2-amine hydrochloride]
[1]
  Emax: 100%

## CC(C)c1ccc2c(n1)CCNC2 [Example 24, 2-Isopropyl-5,6,7,8-tetrahydro-1,6-naphthyridine hydrochloride]
[1]
  Emax: 101%

## c1cc(-c2ccc3c(n2)CCNC3)co1 [Example 26, 2-(3-Furyl)-5,6,7,8-tetrahydro-1,6-naphthyridine dihydrochloride]
[1]
  Emax: 98.2%

## Fc1ccc(-c2ccc3c(n2)CCNC3)cc1 [Example 27, 2-(4-Fluorophenyl)-5,6,7,8-tetrahydro-1,6-naphthyridine dihydrochloride]
[1]
  Emax: 91.7%

## CSc1ccc(-c2ccc3c(n2)CCNC3)cc1 [Example 28, 2-[4-(Methylthio)phenyl]-5,6,7,8-tetrahydro-1,6-naphthyridine dihydrochloride]
[1]
  Emax: 102%

## FC(F)(F)c1ccc(-c2ccc3c(n2)CCNC3)cc1 [Example 29, 2-[4-(Trifluoromethyl)phenyl]-5,6,7,8-tetrahydro-1,6-naphthyridine dihydrochloride]
[1]
  Emax: 97%

## CC(C)Oc1ccc2c(n1)CCNC2 [Example 30, 2-Isopropoxy-5,6,7,8-tetrahydro-1,6-naphthyridine hydrochloride]
[1]
  Emax: 97.8%

## CC(Oc1ccc2c(n1)CCNC2)C1CC1 (centres unmarked) [Example 31, 2-(1-Cyclopropylethoxy)-5,6,7,8-tetrahydro-1,6-naphthyridine hydrochloride]
[1]
  Emax: 88.4%

## c1cc2c(nc1C1CC1)CCNC2 [Example 43, 2-Cyclopropyl-5,6,7,8-tetrahydro-1,6-naphthyridine hydrochloride]
[1]
  Emax: 97%

## CC1CNCc2ccc(N3CCOC[C@H]3C)nc21 (stereo partly drawn) [Example 48, 8-Methyl-2-[(3R)-3-methylmorpholin-4-yl]-5,6,7,8-tetrahydro-1,6-naphthyridine hydrochloride]
[1]
  Emax: 95.5%

## CC1CNCc2ccc(N(C)C(C)C)nc21 (centres unmarked) [Example 53, N-Isopropyl-N,8-dimethyl-5,6,7,8-tetrahydro-1,6-naphthyridin-2-amine hydrochloride]
[1]
  Emax: 91%

## O=C1Nc2cc(Cl)c(Cl)cc2N2CCNCC12 (centres unmarked) [WAY-161503]
[3]; 0.03 mg/kg
  change of leak point pressure (cmH2O): 7.4 ± 3.8 cmH2O
[3]; 0.3 mg/kg
  change of leak point pressure (cmH2O): 12.8 ± 1.0 cmH2O
[3]
  effect on leak point pressure (in words): increased the leak point pressure in a dose-dependent manner

## c1cc2c3c(c1)[C@H]1CCC[C@H]1N3CCNC2 [WAY-163909]
[2]; 3 mg/kg
  urethral closure response (cmH2O) after drug administration: 10.2 ± 1.6 cmH2O
[2]; baseline of the 3 mg/kg
  urethral closure response (cmH2O) before drug administration: 4.4 ± 0.8 cmH2O
[2]
  effect on urethral closure response induced by increased intravesical pressure (in words): enhanced the urethral closure response
[3]; 0.1 mg/kg
  change of leak point pressure (cmH2O): 4.4 ± 1.6 cmH2O
[3]; 1 mg/kg
  change of leak point pressure (cmH2O): 12.9 ± 4.2 cmH2O
[3]; 3 mg/kg
  change of leak point pressure (cmH2O): 30.1 ± 2.6 cmH2O
[3]
  effect on leak point pressure (in words): increased the leak point pressure in a dose-dependent manner

## c1cc2c(nc1N1CCOCC1)OCCNC2 [compound A, 8-morpholin-4-yl-2,3,4,5-tetrahydropyrido[3,2-f][1,4]oxazepine]
[2]; 1 mg/kg
  urethral closure response (cmH2O) after drug administration: 7.5 ± 1.6 cmH2O
[2]; baseline of the 1 mg/kg
  urethral closure response (cmH2O) before drug administration: 4.6 ± 0.8 cmH2O
[2]
  effect on urethral closure response induced by increased intravesical pressure (in words): enhanced the urethral closure response
[3]; 0.1 mg/kg
  change of leak point pressure (cmH2O): 8.4 ± 5.0 cmH2O
[3]; 1 mg/kg
  change of leak point pressure (cmH2O): 10.3 ± 2.4 cmH2O
[3]; 3 mg/kg
  change of leak point pressure (cmH2O): 25.7 ± 8.7 cmH2O
[3]
  effect on leak point pressure (in words): increased the leak point pressure in a dose-dependent manner

## CNCC[C@H](Oc1cccc2ccccc12)c1cccs1 [duloxetine]
[4]; 1 mg/kg, i.v., mean ± SEM, n=5
  change of leak point pressure (cmH2O): 11.4 ± 2.4 cmH2O
[4]; intravenous administration
  effect on leak point pressure (in words): significantly increased the leak point pressure
